Earlier results, collected in patent publication US20180094248A1, “Necroptosis Signaling as a Therapeutic Target for Alzheimer's Disease” (Arizona Board of Regents on behalf of Arizona State …, priority 2016, published 2018).

Columns and labels:
[1] = biological target: RIPK3 (Homo sapiens, UniProt Q9Y572); settings: Kaiser et al., 2013, J. Biol. Chem. 288:31268; cited from earlier work
[2] = biological target: T1, MLKL (Homo sapiens, UniProt Q8NB16); settings: Sun et al., 2012, Cell 148:213-27; cited from earlier work
T1 sequence (Q8NB16 1-471): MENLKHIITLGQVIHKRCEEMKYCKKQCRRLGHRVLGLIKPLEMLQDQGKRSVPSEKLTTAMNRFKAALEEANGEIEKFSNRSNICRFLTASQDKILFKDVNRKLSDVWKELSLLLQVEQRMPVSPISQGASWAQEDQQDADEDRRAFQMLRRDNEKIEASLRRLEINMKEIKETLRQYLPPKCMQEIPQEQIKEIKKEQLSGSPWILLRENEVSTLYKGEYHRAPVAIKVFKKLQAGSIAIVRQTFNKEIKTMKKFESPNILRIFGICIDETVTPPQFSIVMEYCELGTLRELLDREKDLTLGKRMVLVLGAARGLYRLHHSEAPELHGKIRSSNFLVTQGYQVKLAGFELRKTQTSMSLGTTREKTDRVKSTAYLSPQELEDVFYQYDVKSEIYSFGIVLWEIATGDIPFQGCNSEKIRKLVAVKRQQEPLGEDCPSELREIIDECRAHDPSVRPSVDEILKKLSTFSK

Sequence of RIPK3 (Q9Y572 whole entry): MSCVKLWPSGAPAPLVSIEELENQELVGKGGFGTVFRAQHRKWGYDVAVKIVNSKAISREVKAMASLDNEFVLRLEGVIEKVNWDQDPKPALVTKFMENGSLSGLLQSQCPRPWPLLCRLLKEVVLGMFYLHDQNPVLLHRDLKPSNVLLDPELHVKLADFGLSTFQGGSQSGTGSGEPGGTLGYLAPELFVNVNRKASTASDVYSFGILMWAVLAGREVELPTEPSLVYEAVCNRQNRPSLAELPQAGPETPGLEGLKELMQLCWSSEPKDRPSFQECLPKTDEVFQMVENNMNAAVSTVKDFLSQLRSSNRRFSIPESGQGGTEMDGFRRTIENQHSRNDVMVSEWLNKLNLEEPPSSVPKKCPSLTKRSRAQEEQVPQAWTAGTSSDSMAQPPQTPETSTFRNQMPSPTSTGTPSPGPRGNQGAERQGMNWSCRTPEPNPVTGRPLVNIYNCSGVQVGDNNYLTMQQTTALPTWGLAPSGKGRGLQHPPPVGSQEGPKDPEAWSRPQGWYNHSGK

CC(C)S(=O)(=O)c1ccc2nccc(Nc3ccc4scnc4c3)c2c1 [GSK'872, N-(6-(Isopropylsulfonyl)quinolin-4-yl)benzo[d]thiazol-5-amine]
inhibition of RIPK3 (selectivity) [1]: selectively inhibits RIPK3

COc1nccnc1NS(=O)(=O)c1ccc(NC(=O)/C=C/c2ccc([N+](=O)[O-])s2)cc1 [necrosulfonamide, (E)-N-[4-[[(3-Methoxy-2-pyrazinyl)amino]sulfonyl]phenyl]-3-(5-nitro-2-thienyl)-2-propenamide]
inhibition of MLKL (selectivity) [2]: selectively inhibits MLKL
